Inconclusive results and toxic doses are left out. Rule as the data show it: active = T/C of 150% or more; inactive = T/C below 125%.
Tested on: L1210 leukemia ip in BDF1 mice, survival T/C
Assay: NCI In Vivo Anticancer Drug Screen. Data for tumor model L1210 Leukemia (intraperitoneal) in B6D2F1 (BDF1) mice
Settings: higher = longer survival
Summary of the method: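 Read-out is survival time, reported as the treated-group measurement over the vehicle-control measurement.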

[1] = endpoint: mean survival time, dose: 100.0 mg/kg/injection, schedule: Q01DX009 (ip), vehicle: Klucel (hydroxypropylcellulose) (HPC)
[2] = endpoint: mean survival time, dose: 200.0 mg/kg/injection, schedule: Q01DX009 (ip), vehicle: Klucel (hydroxypropylcellulose) (HPC)
[3] = endpoint: mean survival time, dose: 400.0 mg/kg/injection, schedule: Q01DX009 (ip), vehicle: Klucel (hydroxypropylcellulose) (HPC)
[4] = endpoint: mean survival time, dose: 100.0 mg/kg/injection, schedule: Q01DX001 (ip), vehicle: Klucel (hydroxypropylcellulose) (HPC)
[5] = endpoint: mean survival time, dose: 200.0 mg/kg/injection, schedule: Q01DX001 (ip), vehicle: Klucel (hydroxypropylcellulose) (HPC)
[6] = endpoint: mean survival time, dose: 50.0 mg/kg/injection, schedule: Q04DX003 (ip), vehicle: Klucel (hydroxypropylcellulose) (HPC)
[7] = endpoint: mean survival time, dose: 100.0 mg/kg/injection, schedule: Q04DX003 (ip), vehicle: Klucel (hydroxypropylcellulose) (HPC)
[8] = endpoint: mean survival time, dose: 200.0 mg/kg/injection, schedule: Q04DX003 (ip), vehicle: Klucel (hydroxypropylcellulose) (HPC)
[9] = endpoint: mean survival time, dose: 100.0 mg/kg/injection, schedule: Q04DX003 (ip), vehicle: saline with Tween-80
[10] = endpoint: mean survival time, dose: 200.0 mg/kg/injection, schedule: Q04DX003 (ip), vehicle: saline with Tween-80
[11] = endpoint: mean survival time, dose: 100.0 mg/kg/injection, schedule: Q04DX003 (ip), vehicle: saline
[12] = endpoint: mean survival time, dose: 200.0 mg/kg/injection, schedule: Q04DX003 (ip), vehicle: saline
[13] = endpoint: mean survival time, dose: 100.0 mg/kg/injection, schedule: Q01DX001 (ip), vehicle: saline
[14] = endpoint: mean survival time, dose: 200.0 mg/kg/injection, schedule: Q01DX001 (ip), vehicle: saline
[15] = endpoint: mean survival time, dose: 400.0 mg/kg/injection, schedule: Q01DX001 (ip), vehicle: saline
[16] = endpoint: mean survival time, dose: 100.0 mg/kg/injection, schedule: Q01DX001 (ip), vehicle: carboxymethylcellulose (CMC)
[17] = endpoint: mean survival time, dose: 200.0 mg/kg/injection, schedule: Q01DX001 (ip), vehicle: carboxymethylcellulose (CMC)
[18] = endpoint: mean survival time, dose: 400.0 mg/kg/injection, schedule: Q01DX001 (ip), vehicle: carboxymethylcellulose (CMC)
[19] = endpoint: mean survival time, dose: 400.0 mg/kg/injection, schedule: Q04DX003 (ip), vehicle: Klucel (hydroxypropylcellulose) (HPC)

Measured: T/C

C[n+]1ccc(N2CCCCC2)c2ccc(Cl)cc21
inactive: endpoint: mean survival time, dose: 2.0 mg/kg/injection, schedule: Q01DX001 (ip), vehicle: saline 111 % of control

O=C(Nc1cccc(Cl)c1Cl)C(Cl)(Cl)Cl
inactive: endpoint: mean survival time, dose: 100.0 mg/kg/injection, schedule: Q04DX002 (ip), vehicle: Klucel (hydroxypropylcellulose) (HPC) 100 % of control | endpoint: mean survival time, dose: 200.0 mg/kg/injection, schedule: Q04DX002 (ip), vehicle: Klucel (hydroxypropylcellulose) (HPC) 104 % of control | endpoint: mean survival time, dose: 400.0 mg/kg/injection, schedule: Q04DX002 (ip), vehicle: Klucel (hydroxypropylcellulose) (HPC) 88 % of control

O=C(NCc1cccnc1)c1ccccc1N=Cc1cc(Cl)cc(Cl)c1O
inactive: [1] 98 % of control | [2] 96 % of control | [3] 89 % of control

Nc1nc(N)c2cc(S(=O)(=O)c3ccccc3)ccc2n1
inactive: endpoint: median survival time, dose: 25.0 mg/kg/injection, schedule: Q01DX009 (ip), vehicle: saline with Tween-80 110 % of control | endpoint: median survival time, dose: 400.0 mg/kg/injection, schedule: Q01DX009 (ip), vehicle: saline with Tween-80 108 % of control | endpoint: median survival time, dose: 800.0 mg/kg/injection, schedule: Q01DX009 (ip), vehicle: saline with Tween-80 117 % of control

c1ccc(CN2CCCCC2)nc1
inactive: endpoint: mean survival time, dose: 10.0 mg/kg/injection, schedule: Q01DX009 (ip), vehicle: Klucel (hydroxypropylcellulose) (HPC) 103 % of control | endpoint: mean survival time, dose: 10.0 mg/kg/injection, schedule: Q04DX003 (ip), vehicle: Klucel (hydroxypropylcellulose) (HPC) 92 % of control | endpoint: mean survival time, dose: 20.0 mg/kg/injection, schedule: Q01DX009 (ip), vehicle: Klucel (hydroxypropylcellulose) (HPC) 91 % of control | endpoint: mean survival time, dose: 20.0 mg/kg/injection, schedule: Q04DX003 (ip), vehicle: Klucel (hydroxypropylcellulose) (HPC) 97 % of control | endpoint: mean survival time, dose: 40.0 mg/kg/injection, schedule: Q04DX003 (ip), vehicle: Klucel (hydroxypropylcellulose) (HPC) 97 % of control

CCOC(=O)c1cnc(C)nc1NCc1ccccc1
inactive: [4] 101 % of control | [5] 103 % of control | endpoint: mean survival time, dose: 400.0 mg/kg/injection, schedule: Q01DX001 (ip), vehicle: Klucel (hydroxypropylcellulose) (HPC) 113 % of control

CCOC(=O)c1ccccc1COc1ccc([N+](=O)[O-])cc1Cl
inactive: [1] 93 % of control | [2] 93 % of control | [3] 88 % of control

Cc1cc(CSC(=N)N)c(CSC(=N)N)cc1C
inactive: endpoint: mean survival time, dose: 10.0 mg/kg/injection, schedule: Q01DX001 (ip), vehicle: saline 97 % of control | endpoint: mean survival time, dose: 20.0 mg/kg/injection, schedule: Q01DX001 (ip), vehicle: saline 94 % of control | endpoint: mean survival time, dose: 40.0 mg/kg/injection, schedule: Q01DX001 (ip), vehicle: saline 94 % of control

COC(=O)N1C2CCC(C2=C(C)C)N1C(=O)OC
inactive: [6] 105 % of control | [7] 102 % of control | [8] 94 % of control

CN1CN(c2ccccc2)C2(CCNCC2)C1=O
inactive: endpoint: mean survival time, dose: 75.0 mg/kg/injection, schedule: Q01DX001 (ip), vehicle: saline 102 % of control | endpoint: mean survival time, dose: 150.0 mg/kg/injection, schedule: Q01DX001 (ip), vehicle: saline 96 % of control

CS(=O)(=NC(=S)Nc1ccccc1)c1ccccc1 (centres undefined)
inactive: endpoint: mean survival time, dose: 75.0 mg/kg/injection, schedule: Q01DX009 (ip), vehicle: saline 97 % of control | endpoint: mean survival time, dose: 150.0 mg/kg/injection, schedule: Q01DX009 (ip), vehicle: saline 100 % of control | endpoint: mean survival time, dose: 300.0 mg/kg/injection, schedule: Q01DX009 (ip), vehicle: saline 100 % of control

O=C1SC2(CCCCC2)SC1=O
inactive: endpoint: mean survival time, dose: 50.0 mg/kg/injection, schedule: Q01DX009 (ip), vehicle: saline with Tween-80 110 % of control | endpoint: mean survival time, dose: 100.0 mg/kg/injection, schedule: Q01DX009 (ip), vehicle: saline with Tween-80 113 % of control | [9] 110 % of control | [10] 100 % of control

CC1N(C)CCC1(C)CN1c2ccccc2Sc2ccccc21 (centres undefined)
inactive: [11] 108 % of control | [12] 102 % of control

O=C1c2ccccc2C(=O)N1C/C=C/CN1C(=O)c2ccccc2C1=O
inactive: [13] 95 % of control | [11] 101 % of control | [14] 98 % of control | [12] 104 % of control | [15] 91 % of control | endpoint: mean survival time, dose: 400.0 mg/kg/injection, schedule: Q04DX003 (ip), vehicle: saline 102 % of control

O=C(Nc1cccc(Cl)c1)Nc1cc(C(F)(F)F)ccc1Cl
inactive: endpoint: mean survival time, dose: 50.0 mg/kg/injection, schedule: Q01DX001 (ip), vehicle: carboxymethylcellulose (CMC) 96 % of control | [16] 100 % of control | [17] 91 % of control | [18] 100 % of control

O=C(O)C#Cc1ccccc1
inactive: endpoint: mean survival time, dose: 25.0 mg/kg/injection, schedule: Q04DX003 (ip), vehicle: Klucel (hydroxypropylcellulose) (HPC) 107 % of control | [6] 98 % of control | [13] 100 % of control | [7] 96 % of control

COc1ccc(NC(=O)CCc2ccc(N3C(N)=NC(N)=NC3(C)C)cc2)cc1S(=O)(=O)F
inactive: endpoint: mean survival time, dose: 50.0 mg/kg/injection, schedule: Q01DX001 (ip), vehicle: Klucel (hydroxypropylcellulose) (HPC) 95 % of control | [4] 106 % of control | [5] 98 % of control

Cc1ccc(N2CCOC2=O)cc1N1CCOC1=O
inactive: endpoint: mean survival time, dose: 25.0 mg/kg/injection, schedule: Q04DX003 (ip), vehicle: other 97 % of control | endpoint: mean survival time, dose: 50.0 mg/kg/injection, schedule: Q04DX003 (ip), vehicle: other 104 % of control | endpoint: mean survival time, dose: 100.0 mg/kg/injection, schedule: Q04DX003 (ip), vehicle: other 103 % of control | [9] 94 % of control

Nc1ccc(/C=C/c2ccc(N)cc2S(=O)(=O)O)c(S(=O)(=O)O)c1
inactive: endpoint: mean survival time, dose: 50.0 mg/kg/injection, schedule: Q01DX001 (ip), vehicle: saline 97 % of control | [13] 94 % of control | [14] 94 % of control | [15] 97 % of control

O=C(Nc1ccc(S(=O)(=O)N2CCCCC2)cc1)OC(c1ccccc1)(c1ccccc1)c1ccccc1
inactive: [16] 94 % of control | [17] 91 % of control | [18] 89 % of control

C=C1CC2(CCC3(CC2)CC(=C)C(=O)O3)OC1=O (centres undefined)
inactive: endpoint: mean survival time, dose: 12.5 mg/kg/injection, schedule: Q04DX003 (ip), vehicle: saline 102 % of control | endpoint: mean survival time, dose: 25.0 mg/kg/injection, schedule: Q04DX003 (ip), vehicle: saline 116 % of control | endpoint: mean survival time, dose: 50.0 mg/kg/injection, schedule: Q04DX003 (ip), vehicle: saline 119 % of control

COC(=O)C1(C(=O)OC)C=CCCC1=O
inactive: [7] 108 % of control | [8] 107 % of control | [19] 96 % of control

Cc1ccc(S(=O)(=O)OC2CCC(=O)CC2)cc1
inactive: endpoint: mean survival time, dose: 75.0 mg/kg/injection, schedule: Q01DX001 (ip), vehicle: acetone 92 % of control | endpoint: mean survival time, dose: 150.0 mg/kg/injection, schedule: Q01DX001 (ip), vehicle: acetone 97 % of control | endpoint: mean survival time, dose: 300.0 mg/kg/injection, schedule: Q01DX001 (ip), vehicle: acetone 100 % of control

NC(=S)NNc1ccccc1
inactive: endpoint: mean survival time, dose: 100.0 mg/kg/injection, schedule: Q04DX002 (ip), vehicle: saline with Tween-80 105 % of control | endpoint: mean survival time, dose: 200.0 mg/kg/injection, schedule: Q04DX002 (ip), vehicle: saline with Tween-80 105 % of control

CC(=O)/C(N=O)=C(/C)O
inactive: endpoint: mean survival time, dose: 50.0 mg/kg/injection, schedule: Q01DX009 (ip), vehicle: saline 111 % of control | endpoint: mean survival time, dose: 100.0 mg/kg/injection, schedule: Q01DX009 (ip), vehicle: saline 105 % of control | [7] 91 % of control | endpoint: mean survival time, dose: 200.0 mg/kg/injection, schedule: Q01DX009 (ip), vehicle: saline 104 % of control | [8] 93 % of control | endpoint: mean survival time, dose: 400.0 mg/kg/injection, schedule: Q01DX001 (ip), vehicle: saline with Tween-80 92 % of control | endpoint: mean survival time, dose: 400.0 mg/kg/injection, schedule: Q01DX009 (ip), vehicle: saline 111 % of control | [19] 87 % of control

OC(CC(O)(C(F)(F)F)C(F)(F)F)CC(O)(C(F)(F)F)C(F)(F)F
inactive: endpoint: mean survival time, dose: 25.0 mg/kg/injection, schedule: Q01DX009 (ip), vehicle: saline with Tween-80 101 % of control | [9] 95 % of control

O=C(CCCN1CC=C(N2CCc3ccccc32)CC1)c1ccc(F)cc1
inactive: [9] 102 % of control | [10] 102 % of control
